# Test results taken from patent publication US10239863B2, “Factor XIa inhibitors” (Merck Sharp & Dohme Corp., priority 2013, dated 2019).
# Target: T1, purified human Factor XIa (Homo sapiens, UniProt P03951)
# T1 construct: Determinations were made using purified human Factor XIa; purchased Sekisui Diagnostics
# Test: Factor XIa Assay (hydrolysis of fluorogenic substrate Z-Gly-Pro-Arg-AFC)
# Type: biochemical
# Details: purified human Factor XIa 40 pM; Z-Gly-Pro-Arg-AFC 100 μM; 50 mM HEPES pH 7.4; read-out: Factor XIa Inhibition (IC50 (nM))
# Procedure: The effectiveness of compounds of the present invention as inhibitors of Coagulation Factor XIa can be determined using a relevant purified serine protease, and an appropriate synthetic substrate. The rate of hydrolysis of the chromogenic or fluorogenic substrate by the relevant serine protease was measured both in the absence and presence of compounds of the present invention. Assays were conducted at room temperature or at 37° C. […] A decrease in the rate of fluorescence change in the presence of inhibitor is indicative of enzyme inhibition. Such methods are known to one skilled in the art. […]
# Factor XIa determinations were made in 50 mM HEPES buffer at pH 7.4 containing 150 mM NaCl, 5 mM CaCl2, and 0.1% PEG 8000 (polyethylene glycol; JT Baker or Fisher Scientific). Determinations were made using purified human Factor XIa at a final concentration of 40 pM (Sekisui Diagnostics) and the synthetic substrate, Z-Gly-Pro-Arg-AFC, TFA salt (Sigma #C0980) at a concentration of 100 μM.
# Times required to achieve equilibration between enzyme and inhibitor were determined in control experiments. Initial velocities of product formation in the absence (Vo) or presence of inhibitor (Vi) were measured. Assuming competitive inhibition, and that unity is negligible compared Km/[S], [I]/e, and [I]/e (where [S], [I], and e respectively represent the total concentrations, of substrate, inhibitor and enzyme), the equilibrium constant (Ki) for dissociation of the inhibitor from the enzyme can be obtained from the dependence of Vo/Vi on [I] shown in the following equation.
# T1 sequence (P03951 388-625 limits assumed): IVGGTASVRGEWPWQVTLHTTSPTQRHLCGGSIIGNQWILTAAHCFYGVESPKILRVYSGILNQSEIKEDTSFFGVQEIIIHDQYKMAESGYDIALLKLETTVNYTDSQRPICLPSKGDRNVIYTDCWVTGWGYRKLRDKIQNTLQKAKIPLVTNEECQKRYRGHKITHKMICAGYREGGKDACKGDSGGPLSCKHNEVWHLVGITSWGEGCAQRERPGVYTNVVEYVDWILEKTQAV
# T1 sequence (P03951 19-387 partner limits assumed): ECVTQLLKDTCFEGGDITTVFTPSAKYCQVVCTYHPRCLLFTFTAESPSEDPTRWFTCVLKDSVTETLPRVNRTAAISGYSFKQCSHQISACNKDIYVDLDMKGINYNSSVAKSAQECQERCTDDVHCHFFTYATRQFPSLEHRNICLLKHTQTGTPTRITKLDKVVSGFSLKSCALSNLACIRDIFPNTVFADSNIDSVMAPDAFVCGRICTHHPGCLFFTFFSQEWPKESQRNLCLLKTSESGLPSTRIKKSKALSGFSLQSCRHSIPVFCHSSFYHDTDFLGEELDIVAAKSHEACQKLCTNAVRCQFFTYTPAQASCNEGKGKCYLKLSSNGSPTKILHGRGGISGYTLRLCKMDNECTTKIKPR
row,Compound,IC50 [nM]
1,"O=C(Nc1ccc2[nH]ncc2c1)[C@H]1[C@@H](c2ccc(F)cc2)C[C@@H](N2CCNCC2)CN1C(=O)/C=C/c1cc(Cl)ccc1-n1cnnn1 [Example 30, (2R,3R,5R)-1-{(2E)-3-[5-chloro-2-(1H-tetrazol-1-yl)phenyl]prop-2-enoyl}-3-(4-fluorophenyl)-N-1H-indazol-5-yl-5-piperazin-1-ylpiperidine-2-carboxamide]",767
2,"O=C(Nc1ccc2[nH]ncc2c1)[C@@H]1[C@H](c2ccc(F)cc2)C[C@H](N2CCNCC2)CN1C(=O)/C=C/c1cc(Cl)ccc1-n1cnnn1 [Example 31, (2S,3S,5S)-1-{(2E)-3-[5-chloro-2-(1H-tetrazol-1-yl)phenyl]prop-2-enoyl}-3-(4-fluorophenyl)-N-1H-indazol-5-yl-5-piperazin-1-ylpiperidine-2-carboxamide]",40.9
3,"CC(=O)N1CCN([C@H]2C[C@@H](c3ccc(F)cc3)[C@@H](C(=O)Nc3ccc4[nH]ncc4c3)N(C(=O)/C=C/c3cc(Cl)ccc3-n3cnnn3)C2)CC1 [Example 32, (2S,3S,5S)-5-(4-acetylpiperazin-1-yl)-1-{(2E)-3-[5-chloro-2-(1H-tetrazol-1-yl)phenyl]prop-2-enoyl}-3-(4-fluorophenyl)-N-1H-indazol-5-ylpiperidine-2-carboxamide]",72.2

# The remaining molecules from weak to strong by IC50, led by results:
row,IC50 [nM],Compound
1,710,"COC(=O)Nc1ccc(-c2c[nH]c(C3C(c4ccc(F)cc4)CC(C4CCNCC4)CN3C(=O)/C=C/c3cc(Cl)ccc3-n3cnnn3)n2)cc1 (stereo not drawn) [Example 27, methyl (4-{2-[1-{(2E)-3-[5-chloro-2-(1H-tetrazol-1-yl)phenyl]prop-2-enoyl}-5-(4-fluorophenyl)-3,4′-bipiperidin-6-yl]-1H-imidazol-4-yl}phenyl)car-bamate]"
2,519,"C[C@@H]1C[C@H](C2CCNCC2)CN(C(=O)c2ccc(CN)c(C3CC3)c2)[C@@H]1C(=O)Nc1ccc(C(=O)O)cc1 [Example 25, 4-((3R,5R,6S)-1-(4-(aminomethyl)-3-cyclopropylbenzoyl)-5-methy-1-[3,4′-bipiperidine]-6-carboxamido) benzoic acid]"
3,81.1,"O=C(Nc1ccc2[nH]ncc2c1)[C@@H]1[C@H](c2ccc(F)cc2)C[C@H](N2CCOCC2)CN1C(=O)/C=C/c1cc(Cl)ccc1-n1cnnn1 [Example 29, (2S,3S,5S)-1′-{(2E)-3-[5-Chloro-2-(1H-tetrazol-1-yl)phenyl]prop-2-enoyl}-3-(4-fluorophenyl)-N-1H-indazol-5-yl-5-morpholin-4-ylpiperidine-2-carboxamide]"
